SMILES strings stand for the structures.

The first test deals with T1, Menin-MLL (Homo sapiens, UniProt O00255).
T1 construct: His-Menin (M1-L615 end); purchased BIORTUS BP9210
T1 sequence (O00255 1-615 isoform O00255-1): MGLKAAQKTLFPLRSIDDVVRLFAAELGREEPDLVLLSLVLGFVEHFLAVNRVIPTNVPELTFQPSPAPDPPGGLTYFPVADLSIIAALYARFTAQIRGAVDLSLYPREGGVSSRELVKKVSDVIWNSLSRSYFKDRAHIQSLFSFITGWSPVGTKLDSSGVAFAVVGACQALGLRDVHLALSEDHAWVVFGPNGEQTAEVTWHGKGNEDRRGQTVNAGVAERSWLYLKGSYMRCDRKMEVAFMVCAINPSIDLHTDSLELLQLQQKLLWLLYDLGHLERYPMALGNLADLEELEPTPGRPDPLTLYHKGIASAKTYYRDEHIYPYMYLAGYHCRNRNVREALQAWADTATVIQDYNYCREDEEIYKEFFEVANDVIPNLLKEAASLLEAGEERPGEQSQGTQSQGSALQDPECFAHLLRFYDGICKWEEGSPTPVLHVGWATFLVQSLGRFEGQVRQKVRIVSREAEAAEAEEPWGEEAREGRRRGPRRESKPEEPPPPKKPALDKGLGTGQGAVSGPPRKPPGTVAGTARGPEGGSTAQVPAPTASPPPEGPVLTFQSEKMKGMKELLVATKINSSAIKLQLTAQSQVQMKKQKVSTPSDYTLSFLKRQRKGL
Briefly: Inhibitory activity against Menin-MLL binding (fluorescence polarization). The note with it: Menin-MLL IC50, fluorescence polarization; 150 nM His-Menin, 15 nM FITC-MLL; 25°C for 60 min. The method in brief: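 Fluorescence polarization competition: compound and 150 nM His-tagged menin (residues M1-L615) sit 15 min at 25 °C in pH 7.5 HEPES buffer with NaCl, DTT and BSA; 15 nM FITC-labelled MLL peptide then binds for 60 min. IC50 fitted sigmoidally from mP values, duplicate wells.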
What is called IC50 is the concentration at which inhibition is half-maximal. In turn, `CCN(C(=O)c1cc(F)ccc1-c1cc(C2CN([C@H](CCCN3CCN4C(=O)OCC4(CO)C3)C(C)C)C2)cn2c(C)ncc12)C(C)C` (stereo partly drawn) [Example 484, 2-(6-{1-[(3R)-6-[8^a-(hydroxymethyl)-3-oxo-hexahydro-1H-[1,3]oxazolo[3,4-a]pyrazin-7-yl]-2-methylhexan-3-yl]azacyclobutan-3-yl}-3-methylimidazo[1,5-a]pyridin-8-yl)-N-ethyl-5-fluoro-N-(isopropyl)benzamide] gave a 50% inhibitory concentration (IC50) of 4.2 nM.

Still in this test, the particulars now being: fluorescence polarization; 150 nM His-Menin, 15 nM FITC-MLL; 25°C for 60 min; read-out: Menin-MLL IC50.
Take `Cc1cncc2c(-c3ccc(F)cc3C(=O)N(C)C(C)C)cc(CC3CN([C@@H](CCCN4CCN(CCO)CC4)C(C)C)C3)n12` [Example 477-2, 5-fluoro-2-[6-({1-[(3S)-6-[4-(2-hydroxylethyl)piperazin-1-yl]-2-methylhexan-3-yl]azacyclobutan-3-yl}methyl)-4-methylpyrrolo[1,2-a]pyrazin-8-yl]-N-methyl-N-(isopropyl)benzamide]: the IC50 was found to be 27 nM.
Regarding `CCN(C(=O)c1cc(F)ccc1-c1cc(C2CN([C@H](CCCN3CC4COCC(C3)N4C(=O)OC(C)(C)C)C(C)C)C2)cn2c(C)ncc12)C(C)C` [Example 478], the IC50 came out at 1.1 nM.
On the same count and under the same terms, to `CCN(C(=O)c1cc(F)ccc1-c1cc(C2CN([C@H](CCCN3CCNC4(COC4)C3)C(C)C)C2)cn2c(C)ncc12)C(C)C` [Example 483, N-ethyl-5-fluoro-2-(3-methyl-6-{1-[(3R)-2-methyl-6-{2-oxa-5,8-diazaspiro[3.5]non-8-yl}hexan-3-yl]azacyclobutan-3-yl}imidazo[1,5-a]pyridin-8-yl)-N-(isopropyl)benzamide] belongs 19 nM; to `CCN(C(=O)c1cc(F)ccc1-c1cc(C2CN(C(CCCN3C[C@H]4C[C@@H]3CO4)C3(C)COC3)C2)cn2c(C)ncc12)C(C)C` (stereo partly drawn) [Example 485, N-ethyl-5-fluoro-2-(3-methyl-6-{1-[1-(3-methyloxacyclobutan-3-yl)-4-[(1R,4R)-2-oxa-5-azabicyclo[2.2.1]heptan-5-yl]butyl]azacyclobut-3-yl}imidazo[1,5-a]pyridin-8-yl)-N-(isopropyl)benzamide], 42 nM; to `CCN(C(=O)c1cc(F)ccc1-c1cc(C2CN([C@H](CCCN3CCN(CCO)C(=O)C3)C(C)C)C2)cn2c(C)ncc12)C(C)C` [Example 486, N-ethyl-5-fluoro-2-(6-{1-[(3R)-6-[4-(2-hydroxyethyl)-3-oxopiperazin-1-yl]-2-methylhexan-3-yl]azacyclobutan-3-yl}-3-methylimidazo[1,5-a]pyridin-8-yl)-N-(isopropyl)benzamide], 4.2 nM.
Regarding `CCN(C(=O)c1cc(F)ccc1-c1cc(C2CN([C@H](CCCN3CCN(C4(C#N)COC4)CC3)C(C)C)C2)cn2c(C)ncc12)C(C)C` [Example 487, 2-(6-{1-[(3R)-6-[4-(3-cyanooxacyclobutan-3-yl)piperazin-1-yl]-2-methylhexan-3-yl]azacyclobutan-3-yl}-3-methylimidazo[1,5-a]pyridin-8-yl)-N-ethyl-5-fluoro-N-(isopropyl)benzamide], the half-inhibitory concentration (IC50) stood at 2.2 nM.
On the same count and under the same terms, to `CCN(C(=O)c1cc(F)ccc1-c1cc(C2CN([C@H](CCCN3CCN(C4(CC#N)COC4)CC3)C(C)C)C2)cn2c(C)ncc12)C(C)C` [Example 490, 2-(6-{1-[(3R)-6-{4-[3-(cyanomethyl)oxacyclobutan-3-yl]piperazin-1-yl}-2-methylhexan-3-yl]azacyclobutan-3-yl}-3-methylimidazo[1,5-a]pyridin-8-yl)-N-ethyl-5-fluoro-N-(isopropyl)benzamide] belongs 2.9 nM.
Still for that read-out and setting: the value for `CCN(C(=O)c1cc(F)ccc1-c1nc(C2CN(C(CCCN3CCN(CCO)CC3)C(C)C)C2)cn2c(C)ncc12)C(C)C` (centres unmarked) [Example 491, N-ethyl-5-fluoro-2-[6-(1-{6-[4-(2-hydroxyethyl)piperazin-1-yl]-2-methylhexan-3-yl}azacyclobutan-3-yl)-3-methylimidazo[1,5-a]pyrazin-8-yl]-N-(isopropyl)benzamide] was 130 nM; that for `CCN(C(=O)c1cc(F)ccc1-c1nc(C2CN([C@H](CCCN3CCN(CCC#N)CC3)C(C)C)C2)cn2c(C)ncc12)C(C)C` [Example 492] was 270 nM.
On the same count and under the same terms, to `CCN(C(=O)c1cc(F)ccc1-c1cc(C2CN([C@H](CCCN3CCN(CCC#N)C(=O)C3)C(C)C)C2)cn2c(C)ncc12)C(C)C` [Example 493] belongs 5 nM; to `CCN(C(=O)c1cc(F)ccc1-c1cc(C2CN([C@H](CCCN3CCNC(=O)C3)C(C)C)C2)cn2c(C)ncc12)C(C)C` [Example 494], 4.1 nM.
Turning to `CCN(C(=O)c1cc(F)ccc1-c1cc(C2CN([C@H](CCCN3CCN(CCOC)C(=O)C3)C(C)C)C2)cn2c(C)ncc12)C(C)C` [Example 496], the IC50 was found to be 3.8 nM.
Still for that read-out and setting: the value for `CCN(C(=O)c1cc(F)ccc1-c1cc(C2CN([C@H](CCCN3CCN[C@@H](CF)C3)C(C)C)C2)cn2c(C)ncc12)C(C)C` [Example 500] was 2.2 nM; that for `CCN(C(=O)c1cc(F)ccc1-c1cc(C2CN([C@H](CCCN3CCN[C@H](CF)C3)C(C)C)C2)cn2c(C)ncc12)C(C)C` [Example 501] was 1.6 nM; that for `COC[C@H]1CN(CCC[C@@H](C(C)C)N2CC(c3cc(-c4ccc(F)cc4C(=O)N(C(C)C)C(C)C)c4cnc(C)n4c3)C2)CCN1` [Example 504-1, 5-fluoro-2-(6-{1-[(3S)-6-[(3R)-3-(methoxymethyl)piperazin-1-yl]-2-methylhexan-3-yl]azacyclobutan-3-yl}-3-methylimidazo[1,5-a]pyridin-8-yl)-N,N-di(isopropyl)benzamide] was 17 nM.
Take `COC[C@@H]1CN(CCC[C@@H](C(C)C)N2CC(c3cc(-c4ccc(F)cc4C(=O)N(C(C)C)C(C)C)c4cnc(C)n4c3)C2)CCN1` [Example 505-1]: the IC50 is 22 nM.

These data come from patent publication EP4782453A1 (Beyang Therapeutics Co., Ltd., priority 2023, dated 2025).
